As usually defined, the Aqueous solubility is how much of the substance goes into solution per volume. Read a high Aqueous solubility as a readily soluble substance. By pKa is commonly meant the negative logarithm of the acid dissociation constant. Higher therefore signals a weaker acid or stronger base. The LogD is lipophilicity at a set pH, counting ionised and neutral species. Read a low LogD as a more hydrophilic compound.

Data set [1] is described as follows: Aqueous solubility (pSOL). Format: physicochemical. How it is done: (§1) Through Avdeef-Bucher potentiometric titration, pKa and partition coefficients (log D, pH 7.4) were determined on a Gemini Profiler instrument (pION) according to the method of Avdeef and Tsinman. pH measurements were used to determine the intrinsic solubility.
(§2) Potential solubility data were obtained with a pSOL model 3 instrument (pION INC, Cambridge, Massachusetts, USA). Cell membrane permeability was determined on a PAMPA Explorer instrument (pION).

Data set [2] concerns RAW264.7 cells. Briefly: Antioxidant capacity assays (SOD, GSH-Px, GSH/GSSG, MPO). The format is cell-based, mouse. The source says:
Subsequently, to investigate the effect of pro2 on antioxidant capacity in inflammatory conditions, the activities of superoxide dismutase (SOD) and glutathione peroxidase (GPx) were examined. […] In addition, the GSH/GSSG ratio and myeloperoxidase (MPO) activity were also examined, which are two important markers indicating oxidative stress.

Data set [3] is described as follows: Stability in artificial gastric and intestinal fluids (SGF, SIF). The format is physicochemical. The conditions noted are these: after 8 h. How it is done:
(4) Stability in artificial gastric and intestinal fluids. Artificial gastric and intestinal fluids were purchased from commercial suppliers. Samples of prodrug (20 μM) were incubated in triplicate with artificial gastric or intestinal fluids at 37° C. for different periods of time. The enzyme protein was precipitated by adding methanol, and the samples were vortexed and then centrifuged at 5000 rpm for 5 min. The supernatants of the samples were analyzed by HPLC and the peak areas were recorded. All chromatographic conditions were as described above.

A short description of data set [4]: Parallel artificial membrane permeability assay (PAMPA). Format: in vitro ADME. The protocol:
as §2
Subsequently, the permeability of cell membranes was measured by standard parallel artificial membrane permeability assay (PAMPA).
In general terms: In PAMPA a lipid-coated filter parts donor from acceptor wells.

In data set [5] the test system is IL-1β and IL-6 protein in RAW264.7 cells. Put plainly: Western blot of IL-1β and IL-6 protein levels. The conditions noted are these: same concentration. The format is cell-based, mouse. How it is done: (§3) Anti-Nrf2 (ab62352) and anti-IL-1β (ab45692) antibodies were purchased from Abcam Technology (England). Anti-HO-1 (SC-136960) and anti-NQO1 (SC-271116) antibodies were purchased from Santa Cruz Biotechnology (California, USA). Anti-β-Actin (60008-1-Ig) and anti-GCLM (14241-1-AP) antibodies were purchased from Proteintech Group (USA). Cell sampling and western blot were performed as previously reported (M.-C. Lu, J.-A. Ji, Y.-L. Jiang, Z.-Y. Chen, Z.-W. Yuan, Q.-D. You, Z.-Y. Jiang, An inhibitor of the Keap1-Nrf2 protein-protein interaction protects NCM460 colonic cells and alleviates experimental colitis, Sci. Rep., 6 (2016) 26585).

Data set [6] has as its system C57BL/6 mice. Put plainly: LPS-induced mouse acute inflammation model. Format: in vivo. The conditions noted are these: LPS 300 μg/kg mice. The protocol: Female C57BL/6 mice (6-8 weeks old, 18-20 g in weight) were acclimatized with drinking water for 2 days, and were randomized to eight groups: (A) control group (n=3); (B) LPS (Sigma-Aldrich, St. Louis, No. L4130) model group (300 μg/kg/day, n=8); (C) LPS (300 μg/kg/day)+pro2 low-dose (10 mg/kg/day) group (n=8); (D) LPS (300 μg/kg/day)+pro2 high-dose (40 mg/kg/day) group (n=8); (E) LPS (300 μg/kg/day)+active parent compound 2 high-dose (40 mg/kg/day) group (n=8); (F) LPS (300 μg/kg/day)+dexamethasone low-dose (10 mg/kg/day) group (n=8); (G) pro2 high-dose (40 mg/kg/day) group (n=3); and (H) active parent compound 2 high-dose (40 mg/kg/day) group (n=3). Animals of groups A, G and H were given IP injections of 500 μL of normal saline each time (on days −3, −2 and −1). All LPS-stimulated mice were IP-injected with 500 μL of LPS (on days −3, −2 and −1), and 4 h after the injection the mice were given corresponding compound treatment (on days −3, −2 and −1). Animals were sacrificed (day 0) 24 h after the last dose of the compound to collect the serum, and the levels of cytokine IL-1β, IL-6, TNF-α and IFN-γ in the serum were determined by ELISA.

The subject of data set [7] is Nrf2 and downstream antioxidant enzyme in RAW264.7 cells. Put plainly: Western blot of Nrf2 targeting proteins. The format is cell-based, mouse. The conditions noted are these: LPS, same concentration. The protocol:
as §3
(§4) To determine the effect of pro2 on Nrf2-ARE-driven gene transcription, mRNA levels of Nrf2 and three downstream genes, HO-1, NQO1 and GCLM, were examined ((A) of FIG. 4 to (D) of FIG. 4). […] The protein levels of the above genes were determined by western blot.
In general terms: In western blotting, separated proteins are transferred to a membrane and probed.

Data set [8] in a line: pKa and log D by Avdeef-Bucher potentiometric titration. Format: physicochemical. The protocol:
as §1

Data set [9] deals with Nrf2-ARE-driven gene transcription in RAW264.7 cells. Put plainly: Real-time quantitative PCR of Nrf2, HO-1, NQO1 and GCLM. The conditions noted are these: 20 ng/mL LPS 8 h, compound 500 nM. Format: cell-based, mouse. The protocol:
The procedures were performed according to the real-time quantitative RT-PCR experimental procedures reported previously (Z. Jiang, M. Lu, Q. D. You, Discovery and Development of Kelch-like ECH-Associated Protein 1: Nuclear Factor Erythroid 2-Related Factor 2 (KEAP1:NRF2) Protein-Protein Interaction Inhibitors: Achievements, Challenges and Future Directions, J. Med. Chem., 59 (2016) 10837-10858). The primers used for qRT-PCR were as follows: Nrf2 (forward primer: AACCACCCTGAAAGCACGC, reverse primer: […]); HO-1 (forward primer: […], reverse primer: […]); NQO-1 (forward primer: CGCAGACCTT-GTGATATTCCAG, reverse primer: […]); GCLM (forward primer: […], reverse primer: […]).
as §4

Regarding `COc1ccc(S(=O)(=O)Nc2ccc(N(CC(=O)N3CCSC3=O)S(=O)(=O)c3ccc(OC)cc3)c3ccccc23)cc1` [pro2], the “Aqueous solubility at pH 7.4” value in data set [1] is given as 879.6 μg/mL. In addition, the “SOD and GSH-Px activity” value in data set [2] (LPS 20 ng/mL) was “restored the SOD and GSH-Px activity significantly”. Also, the “GSH/GSSG ratio and MPO activity” value in [2] (LPS exposure) is reported as “return markers to near normal”. The “remaining in simulated gastric fluid (SGF)” value in data set [3] (SGF) is recorded as greater than 50%. Further, the “remaining in simulated intestinal fluid (SIF)” value in data set [3] (SIF) is on record as greater than 50%. In addition, the “Pe at pH 7.4” value in data set [4] was 6.35 10^−6 cm/s. Moreover, in data set [4] (pH 7.4, read-out: Pe at pH 7.4), the Papp was found to be 6.35 ×10⁻⁶ cm/s. Moreover, the “LPS-induced IL-1β and IL-6 protein expression” value in [5] is given as “almost completely inhibited”. For the same compound, the “anti-inflammatory effect (serum IL-1β, IL-6, TNF-α, IFN-γ)” value in data set [6] (compound 10 mg/kg) was “comparable therapeutic effect to dexamethasone”; in [6] (compound high dose 40 mg/kg, oral), “stronger effect”. In [7], the “protein levels of Nrf2 and downstream antioxidant enzyme” value was “significantly increased levels of Nrf2 and downstream antioxidant enzyme”. Moreover, the pKa in [8] was found to be 4.53. In addition, the “LogD at pH 7.4” value in data set [8] (pH 7.4) is reported as 2.34. The “transcription of Nrf2, HO-1, NQO1 and GCLM (mRNA)” value in [9] is reported as “greatly enhanced the transcription”.

(Values after patent publication US12383535B2, “Hydrogen peroxide-responsive KEAP1-NRF2 ppi inhibitor prodrug, and preparation method therefor” (CHINA PHARMACEUTICAL UNIVERSITY, priority 2019, dated 2025).)
